In data set [1] the test system is cell culture cells, transfected with Mnk2 (Mnk2a or Mnk2b) or Mnk1. Conditions: addition to cell culture cells transfected with Mnk2 (Mnk2a or Mnk2b) or Mnk1; cited from earlier work.
The next data set deals with db/db mice. Put plainly: 14-day oral treatment study in db/db mice (body weight, blood glucose, plasma and pancreas parameters). Conditions: oral gavage. The format is in vivo. How it is done: BKS.Cg-m+/+Lepr^db/J (Charles River Laboratories) male mice (commonly referred to as db/db mice) are deficient in the […] due a spontaneous point mutation. They are maintained on the C57BL6/J strain.
Mice are housed four by cage at a temperature of 22-24° C. and a day/night cycle of […] (05:00-19:00-05:00), and obtain standard chow and tap water ad libitum. Mice are allowed to adapt to housing and environment for 14 days prior to substance administration.
Compound suspensions in 0.3% Methylcellulose in saline are prepared freshly just prior to administration.
Substances will be administered by oral gavage in the morning at 07:00, one hour before determining fed blood glucose levels and body weight. In the evening, substance is administered between 17:00 and 18:00. Animals are visually monitored for 1 hour after the administrations.
Dosing is chosen based on the results of pharmacokinetic (PK) and dose tolerability studies. […]
Animals are being supplied one week in advance to allow for adaptation to housing and environment. During that time, body weight and fed blood glucose are measured daily. […]
Bodyweight and bloodglucose were measured three times a week. At the end of the study pancreatic insulin content and plasma parameters were determined.

This is an account of results in patent US8633201B2, “Thienopyrimidines having Mnk1/Mnk2 inhibiting activity for pharmaceutical compositions” (Boehringer Ingelheim International GmbH, priority 2006, dated 2014).

For `Nc1ncnc2n[nH]c(Nc3ccc(F)cc3)c12` [CGP57380], the “phosphorylated eIF4E” value in data set [1] was “strong reduction”.

For `NC(=O)c1ccc(Nc2ncnc3ccsc23)c(OC2CCOC2)c1` (stereo not drawn) [Compound 15, 3-(Tetrahydrofuran-3-yloxy)-4-(thieno[3,2-d]pyrimidin-4-ylamino)-benzamide], in the data set on db/db mice (during the 14 day study, FIG. 2), the “random fed blood glucose” value is on record as “progressive improvement”.

As for `CN(CCOc1ccc(CC2SC(=O)NC2=O)cc1)c1ccccn1` (stereo not drawn) [Rosiglitazone], the “body weight compared to vehicle” value in the data set with db/db mice (d1 to d14, FIG. 1) is listed as “significant increased in body weight”.
